Patent US6087358A (priority 1997, dated 2000)
Converted amounts (≈) assume the structure as drawn.

Each compound was assayed on Mycobacterium tuberculosis (multidrugresistant strain) (assay: microbe, parasite or virus in culture). Details: read-out: MIC, column C, 3(S) compounds.
Type: cell-based
In the case of `O=[N+]([O-])c1cn2c(n1)OC[C@@H](OCc1ccc(OCc3ccccc3)cc1)C2` [PA-647], the MIC is reported as ≤ 0.015 µg/mL.
For `CC(C)(C)c1ccc(CO[C@@H]2COc3nc([N+](=O)[O-])cn3C2)cc1` [PA-653], the MIC was ≤ 0.015 µg/mL.
`CCCCc1ccc(CO[C@@H]2COc3nc([N+](=O)[O-])cn3C2)cc1` [PA-822] was tested, and the MIC was ≤ 0.015 µg/mL.
Work on `O=[N+]([O-])c1cn2c(n1)OC[C@@H](OCc1ccc(OC(F)(F)F)cc1)C2` [PA-824, 3S 4-(Trifluromethoxy)benzyloxy-6-nitro-2H-3,4-dihydro-[2-1b]imidazopyran] yielded an MIC of 0.13 µg/mL (≈ 0.362 µM).
